Results as given in patent publication US20100331189A1, “Plant Growth Promoter Utilizing Potato Cyst Nematode” (TOKAI UNIVERSITY EDUCATIONAL SYSTEM, priority 2008, published 2010).

Experiments:
[1] = tested on: beets; experiment: Beet cultivation in PCN-contaminated farmland after spraying around the roots (2007); type: in vivo; conditions: cultivated 112 days; for Average weight of three beets other than the largest beet / Weight of the largest beet: PCN-contaminated farmland; for Sugar content: saccharimeter
Protocol: A farmland (Fujimi, Kutchan-cho, Hokkaido) contaminated by PCNs was examined in advance.
In that farmland, about […] beets per 1 m^2 were cultivated under the conditions that the width of a ridge was 69 cm and the distance between beets was 30 cm. […] The amount sprayed was changed to three levels, 1.8, 5.5, and 9.0 (g/m^2), and each chemical agent having the above-described amount was dissolved in 5 liters of water to obtain a spraying solution. Subsequently, the beets were cultivated for 112 days and the grown beets were harvested. The weight (kg) of the largest beet, the average weight (kg) of three beets other than the largest beet, and the sugar content (%) were measured. […] The sugar content (%) was measured with a saccharimeter (MASTER-M model 2313 available from ATAGO Co., Ltd.). […]
The mixed chemical agent contained 6% by mass of coconut oil fatty acid diethanolamide and 0.6% by mass of polyethylene glycol.

[2] = tested on: eggs of potato cyst nematodes; experiment: Accelerated hatching effect of aqueous fatty acid dialkanolamide solution; type: in vivo; conditions: 1000-fold diluted aqueous solution; water 5.0%
Protocol: The accelerated hatching effect of an aqueous fatty acid dialkanolamide solution for the eggs of potato cyst nematodes was measured. […] It is believed that the fatty acid dialkanolamide has a function of breaking the eggshell of PCNs and thus the eggs of PCNs are forcedly hatched.

[3] = tested on: PCNs; experiment: PCN control at a site where a potato had been cultivated: nematode density after spraying; type: in vivo, potato cyst nematodes; conditions: sprayed amount 9.0 g/m^2; soil had 2000 to 5000 PCNs per 20 g
From the text: After the chemical agents were sprayed, all the cysts in 20 g of air-dried soil were gathered and the total number of eggs and second-generation larvae in the cysts was obtained.

[4] = tested on: beets; experiment: Beet cultivation after treatments of farmland sections (2008); type: in vivo; conditions: for Average weight / Weight of the largest beet: sprayed once before planting; for growth promotion / enlargement of a beet (in words): results of beet cultivation of Table 8
Protocol: [table] The beets were cultivated under the conditions that the width of a ridge was 69 cm and the distance between beets was 30 cm. […] Then the beets were cultivated until Oct. 8, 2008 and harvested. After the stems and leaves of the harvested beets were removed, the weight of the beets was measured.

[5] = tested on: PCN; experiment: PCN density in treated farmland sections (2008); type: in vivo, potato cyst nematodes
[6] = Polarity and solubility in water; type: physicochemical; conditions: research conducted by the inventors
From the text: Thus, the inventors of the present invention have focused on an ecological method. The ecological method is an indirect method in which the eggs of PCNs are forcedly hatched in some way, and then the hatched larvae are made to starve to death or destroyed using a typical agricultural chemical, which results in the prevention of the damage caused by the PCNs. It has been known for a long time that PCNs hatch when exposed to a substance secreted from the host plants, and there has been conducted a study for identifying a hatching-activating substance and isolating it from the secretory substance. Patent Document 1 discloses Solanoeclepin A as the hatching-activating substance.

[7] = 260 mg in 100 ml of water per single beet
[8] = 260 mg in 100 ml of water per two beets

| SMILES | Average weight of three beets other than the largest beet ([1]; sprayed amount 1.8 g/m^2, once) [kg] | Weight of the largest beet ([1]; sprayed amount 1.8 g/m^2, once) [kg] | Sugar content ([1]; sprayed amount 1.8 g/m^2, once) [%] | Average weight of three beets other than the largest beet ([1]; sprayed amount 5.5 g/m^2, once) [kg] | Weight of the largest beet ([1]; sprayed amount 5.5 g/m^2, once) [kg] | Sugar content ([1]; sprayed amount 5.5 g/m^2, once) [%] | Average weight of three beets other than the largest beet ([1]; sprayed amount 9.0 g/m^2, once) [kg] | Weight of the largest beet ([1]; sprayed amount 9.0 g/m^2, once) [kg] | Sugar content ([1]; sprayed amount 9.0 g/m^2, once) [%] | growth promotion / enlargement of a beet (in words) [4] | other results |
| --- | --- | --- | --- | --- | --- | --- | --- | --- | --- | --- | --- |
| CC(=O)N(CCO)CCO [Example 1, acetic acid diethanolamide] | 1.63 | 2.85 | 19.80 | 1.68 | 2.53 | 20.10 | 1.40 | 1.90 | 19.90 | – | – |
| CCCCCCCCCC(=O)N(CCO)CCO [Example 4, decanoic acid diethanolamide] | 1.86 | 2.20 | 21.20 | 1.92 | 2.35 | 20.00 | 1.62 | 2.15 | 23.40 | – | hatching ratio [2]: 23.8%; Nematode density (total number of eggs and second-generation larvae in the cysts) [3]: 765 /20 g of air-dried soil |
| CCCCCCCCCCCCCCCCCC(=O)N(CCO)CCO [Example 7, octadecanoic acid diethanolamide] | 1.48 | 2.05 | 20.20 | 1.65 | 1.95 | 20.20 | 1.85 | 2.30 | 21.00 | – | Nematode density (total number of eggs and second-generation larvae in the cysts) [3]: 540 /20 g of air-dried soil |
| CCCCCC(=O)N(CCO)CCO [Example 15, hexanoic acid diethanolamide] | – | – | – | – | – | – | – | – | – | achieves the enlargement of a beet | Average weight [4, 7]: 1.55 kg; Weight of the largest beet [4, 7]: 2.10 kg; PCN density ([5]; 260 mg in 100 ml of water sprayed around the area of a single beet): 600 /20 g of air-dried soil; effect on PCN density (in words) ([5]; section 2-1 compared with section 1-1): decreases PCN density |
| COC1=C2C(C)(C)[C@H]3O[C@@]2(CC3=O)[C@@H](O)C2=C(C1=O)[C@@]13C(=O)[C@@]([C@@H]4C[C@H]4C(=O)O)(C[C@@H]1O)[C@]3(C)CC2 [Solanoeclepin A] | – | – | – | – | – | – | – | – | – | – | solubility in water [6]: poor solubility in water |
| CC(=O)NCCO [compound 13, acetic acid monoethanolamide] | – | – | – | – | – | – | – | – | – | poor effect of growth promotion | Average weight [4, 8]: 1.40 kg; Weight of the largest beet [4, 8]: 1.40 kg |
| CCCCCCCCCC(=O)NCCO [compound 14, decanoic acid monoethanolamide] | – | – | – | – | – | – | – | – | – | poor effect of growth promotion | Average weight [4, 8]: 1.10 kg; Weight of the largest beet [4, 8]: 1.80 kg |
